Results taken from patent publication US6337316B1, “Pharmaceutical compositions thereof, and methods of using same” (Applied Research Systems ARS Holding N.V., priority 1997, dated 2002).
Read-outs that look alike come from different tables or passages of the source. Bridge positions count the residues as written; N and C are the ends. Ends that are not written are not given here. iodoacetamide‑alkyl = not defined here

Assays:
[1] = tested on: binding of CTLA-4Ig to B7 on Cess B cells; assay: CTLA-4Ig/B7 binding assay on Cess B cells by FACS; design: key to Binding Assay (effect on CTLA-4Ig binding to Cess B cells): −: no change in binding; +: a minor change of <10% in binding; ++: a change of >20% in binding; conditions: for Binding Assay (effect on CTLA-4Ig binding to Cess B cells): FACS, assays of 3/24, 3/25, 4/5, 4/25, one symbol per assay; for effect on CTLA-4Ig binding, retest in the Cess B binding assay: retest of positives from primary screening
Description: +++ was assigned if the peptide tested gave >50% change in cpm in a dose dependent fashion. In addition to the MLR, these 34 peptides were also evaluated in a CTLA-4Ig/B7 binding assay in which the ability of these peptides to affect the binding of CTLA-4Ig to B7 on Cess B cells was examined by FACS analysis.
As with the MLR, a + or − was assigned to each peptide depending on its ability to effect CTLA-4Ig binding to Cess B cells; where − represents no change in binding, + represents a minor change of <10% in binding, and a ++ represents a change of >20% in binding.

[2] = tested on: lymphocyte proliferation in the human MLR; format: cell-based; conditions: for Human MLR (ability to inhibit lymphocyte proliferation, cpm): peptide 12.5 to 100 μM, assays of 1/24, 1/31, 3/6, 4/17, 5/2, one symbol per assay; for effect on the MLR, retest: two MLRs, peptide by itself, concentrations up to 200 μM; for inhibition of the MLR, in words: control and linear peptides compared with AT 199; for effect on the human MLR in combination with CTLA-4Ig: CTLA-4Ig spiked in at 0.5 μg/ml (FIG. 8)
Description: Whole blood from donors was obtained from Interstate Blood Bank, Memphis, Tenn. Blood specimens were handled in a biosafety level 2 containment facility as recommended for potentially infectious blood specimens in the CDC/NIH manual Biosafety in Microbiological and Biomedical Laboratories; 3rd edition, 1993, page 10. Peripheral blood mononuclear cells (PBMC) were separated from red blood cells and granulocytes by ficoll-hypaque purification. Whole peripheral blood was diluted 1:2 in PBS and 30 ml was overlayed onto 15 ml of ficoll-hypaque in 50 ml polypropylene tubes. The tubes were spun at 400×g for 30 min at 25° C. Following centrifugation, the interface between the upper plasma layer and the lower ficoll layer was collected, cells washed in RPMI-1640 2×, and viable counts determined using trypan blue. Cells to be used as responders in the assay were stored on ice until mitomycin C treatment of stimulator cells was completed.
PBMC, isolated as described above, to be used as stimulators in the assay were adjusted to 2-4×10^6 cells/ml in complete medium (RPMI 1640 containing 10% heat-inactivated human AB serum, 2 mM glutamine, 50 μM 2-mercaptoethanol and 100 U/ml penicillin-100 μg/ml streptomycin), and treated with mitomycin C (25 μg/ml) for 30 min in a 37° C. water bath. Following treatment, cells were washed with S volumes of complete medium 3×, and viable counts determine using trypan blue. To set up autologous stimulation controls some responder cells were also treated with mitomycin C as mentioned above.
Purified CTLA-4Ig fusion protein was produced, as described in Steurer et al. 1995, from a NS-1 cell line kindly donated by Dr. T. Strom (Beth Israel Hospital, Boston, Mass.) as a 1 mg/ml solution in sterile PBS. The protein was stored frozen at −80° C. Upon thawing, the aliquot was stored at 4° C. Purified peptides were lyophilized according to known procedures. Peptides were reconstituted in sterile PBS, pH 7.4 at 2 mM concentration, aliquoted in microfuge cubes and stored frozen at −20° C. For the assay, an aliquot of the peptide was thawed and diluted to 200 μM in complete medium.
For the one-way allogeneic mixed lymphocyte response (MLR) assay, responder cells were plated at 10^6 cells/well, and stimulator cells at 5×10^4 cells/well in 96-well round bottom plates. Cells were incubated with serial dilutions of the anti-CD4 Ab Leu 3A (1 μg/ml-0.06 μg/ml) in triplicate, or an isotype-matched control Ab. Cyclosporin A at 1 μg/ml was used as an additional control.
CTLA-4 Ig was serially diluted an.4 tested from 10 μg/ml to 0.15 μg/ml. Peptides were tested either directly or in the presence of a constant spiked-in dose of CTLA-4 Ig at 0.5 μg/ml. The plates were incubated at 37° C. in a humidified 5% CO2 atmosphere for 7 days.
Proliferation of the cells was determined by pulsing the wells with ^3H-Tdr (1 μCi/well) for the last 18 h of the assay. Plates were harvested using a Tomtec -late harvester and the counts incorporated determined using a Wallac microbetaplate plus reader.
A total of 34 peptides were tested for inhibition of lymphocyte proliferation in the human MLR. Each peptide was tested in a MLR at doses ranging from 12.5 to 100 μM. The activity of each peptide was identified by assigning a + and − tone peptide depending on its ability to inhibit lymphocyte proliferation in the MLR (cpms).

| Substance | Binding Assay (effect on CTLA-4Ig binding to Cess B cells) [1] | Human MLR (ability to inhibit lymphocyte proliferation, cpm) [2] | further results |
| --- | --- | --- | --- |
| LDSAVEV [AT 116.1] | − | − (all concentrations of peptide tested gave <15% change in cpm) |  |
| CMYPPPYKAKC (disulfide 1-11 (inferred)) [AT 112.1] | −, − | − (all concentrations of peptide tested gave <15% change in cpm) |  |
| KCSYNLFSREFC (not fully specified (bridges); cysteine pairing not given here) [AT 106.1] | ++, ++ | ++, +, +, +/− | effect on CTLA-4Ig binding, retest in the Cess B binding assay [1]: no effect; effect on the MLR, retest [2]: none of these peptide by themselves had any consistent effect |
| KILVKQS [AT 119.1] | − | −, +/− |  |
| CMYPPYLRGGKC (disulfide 1-12 (inferred)) [AT 109.1] | −, + |  |  |
| CKIEVMYPPPYC (disulfide 1-12 (inferred)) [AT 113.1] | −, − | − (all concentrations of peptide tested gave <15% change in cpm) |  |
| CSSGNQVC (disulfide 1-8 (inferred)) [AT 132.1] | +, − | +, −, − |  |
| CSKTGFNC (disulfide 1-8 (inferred)) [AT 115.1] | − | − (all concentrations of peptide tested gave <15% change in cpm) |  |
| CSSPNQVC (disulfide 1-8 (inferred)) [AT 133.1] | ++, − | ++, + | effect on CTLA-4Ig binding, retest in the Cess B binding assay [1]: no effect; effect on the MLR, retest [2]: none of these peptide by themselves had any consistent effect |
| RKCLAYPPPYYCHH (not fully specified (bridges); cysteine pairing not given here) [AT 200.1] | −, −, − | −, −, − | inhibition of the MLR, in words [2]: did not inhibit any of the MLRs as much as AT 199 |
| KYLVKQS-OH [AT 122.1] | +, − | −, − |  |
| CMYPPPYYKAKC (disulfide 1-12 (inferred)) [AT 130.1] | −, − | −, − |  |
| CMYPPPYGKC (disulfide 1-10 (inferred)) [AT 110.1] | −, − | − (all concentrations of peptide tested gave <15% change in cpm) |  |
| AT 199.2B: AT 199 treated with iodoacetamide, purely linear analog with alkylated cysteines (RKC(iodoacetamide‑alkyl)LMYPPPYYC(iodoacetamide‑alkyl)HH; not fully specified (C-terminus); reading uncertain) |  |  | effect on the human MLR in combination with CTLA-4Ig [2]: no effect; inhibition of the MLR, in words [2]: no effect; inhibition of the human MLR ([2]; the MLR's, highest concentration (100 μM) tested): < 10% |
| CKYSYNLFSREFC (disulfide 1-13 (inferred)) [AT 107.1] |  | −, +, +, − |  |
| CMYPPPYYRGGKC (disulfide 1-13 (inferred)) [AT 129.1] | ++ (a change of >20% in binding) | −, − |  |
| CEYASPGKATEVC (disulfide 1-13 (inferred)) [AT 123.1] | +/−, − | −, − |  |

| Substance | Binding Assay (effect on CTLA-4Ig binding to Cess B cells) [1] | Human MLR (ability to inhibit lymphocyte proliferation, cpm) [2] | further results |
| --- | --- | --- | --- |
| ADSQVTEV [AT 127.1] | +/−, +/− | −, − |  |
| CDDSIC (disulfide 1-6 (inferred)) [AT 131.1] |  | +, −, − |  |
| KYLVKQS [AT 120.1] | − | −, +/− |  |
| CMYPPQYGKC (disulfide 1-10 (inferred)) [AT 111.1] | − | −, +/− |  |
| AT 199.2A: resynthesis of AT 199.1, refolding prolonged to 5 days at pH 10.0; fully cyclized version (RKCLMYPPPYYCHH; disulfide 3-12 (inferred); not fully specified (C-terminus)) |  |  | inhibition of the human MLR ([2]; 100 μM, another MLR): 25%; inhibition of the human MLR ([2]; 100 μM, one MLR): 50%; effect on the human MLR in combination with CTLA-4Ig [2]: additive |
| KILVKQS-OH [AT 121.1] |  | +/−, − |  |
| CSPNQC (disulfide 1-6 (inferred)) [AT 135.1] | ++ (a change of >20% in binding) | +/−, − | effect on CTLA-4Ig binding, retest in the Cess B binding assay [1]: no effect; effect on the MLR, retest [2]: none of these peptide by themselves had any consistent effect |
| LDSAVEV-OH [AT 117.1] | + (a minor change of <10% in binding) | − (all concentrations of peptide tested gave <15% change in cpm) |  |
| ECASPGKATEVC (not fully specified (bridges); cysteine pairing not given here) [AT 118.1] |  | − (all concentrations of peptide tested gave <15% change in cpm) |  |
| CKGLDSAVEC (disulfide 1-10 (inferred)) [AT 108.1] | − | −, −, − |  |
| HVEQPA [AT 137.1] | +/−, − | −, + |  |
| HVAQPA [AT 136.1] | +++, + | ++, +, − | effect on CTLA-4Ig binding, retest in the Cess B binding assay [1]: no effect; effect on the MLR, retest [2]: none of these peptide by themselves had any consistent effect |
| CKIEVMYPPPYLC (disulfide 1-13 (inferred)) [AT 114.1] | Toxic | Toxic |  |
| NECTFCDD (not fully specified (bridges); cysteine pairing not given here) [AT 197.1] | −, −, − | −, −, − |  |
| CRQADSQVTEC (disulfide 1-11 (inferred)) [AT 128.1] | + (a minor change of <10% in binding) | ++, − | effect on CTLA-4Ig binding, retest in the Cess B binding assay [1]: no effect; effect on the MLR, retest [2]: none of these peptide by themselves had any consistent effect |
| HVEQPA-OH [AT 125.1] | −, + | −, − |  |
